According to patent US4015974A, “Amido phosphorothiolates” (priority 1972, dated 1977):

Assays:
Format in all cases: in vivo
radish = experiment: Pre-emergence application, herbicidal effect on radish (Table 1); parameters: key: 0: not damaged; 5: completely killed; conditions: 20 days after application, score 0-5
Summary of the method: (§1)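 Scores run from 0 (undamaged) to 5 (fully killed), read 20 days post-treatment. Compounds were applied as water-diluted wettable powders to soil over freshly covered seeds in ~10 cm pots, with plants kept in a greenhouse.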

[1] = tested on: barnyard grass (Echinochloa crus-galli); experiment: Water application, herbicidal effect on barnyard grass (Table 2); parameters: key: 0: not damaged; 5: completely killed; conditions: 25 days, score 0-5
Summary of the method: (§2)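 Scores (0–5) taken 25 days post-treatment. Wettable-powder formulations were applied into standing water over paddy soil holding 3-leaf-stage transplanted rice, sown Echinochloa and naturally emerging monochoria, false pimpernel and toothcup.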

[2] = tested on: redroot pigweed (Amaranthus retroflexus); experiment: Pre-emergence application, herbicidal effect on redroot pigweed (Table 1); parameters: key: 0: not damaged; 5: completely killed; conditions: 20 days after application, score 0-5
Summary of the method: as §1

[3] = tested on: broad-leaved weeds, e.g., monochoria, false pimpernel and toothcup; experiment: Water application, herbicidal effect on broad-leaved weeds (Table 2); parameters: key: 0: not damaged; 5: completely killed; conditions: 25 days, score 0-5
Summary of the method: as §2

rice = experiment: Water application, phytotoxicity on rice (Table 2); parameters: key: 0: no effect; 1: very slightly affected; 2: slightly affected; 3: moderately affected; 4: considerably affected; 5: completely killed; conditions: 25 days, score 0-5
Summary of the method: as §2

[4] = tested on: common lambsquarter (Chenopodium album); experiment: Pre-emergence application, herbicidal effect on common lambsquarter (Table 1); parameters: key: 0: not damaged; 5: completely killed; conditions: 20 days after application, score 0-5
Summary of the method: as §1

[5] = tested on: barnyard grass (Echinochloa crus-galli); experiment: Pre-emergence application, herbicidal effect on barnyard grass (Table 1); parameters: key: 0: not damaged; 5: completely killed; conditions: 20 days after application, score 0-5
Summary of the method: as §1

[6] = tested on: large crabgrass (Digitaria sanguinalis); experiment: Pre-emergence application, herbicidal effect on large crabgrass (Table 1); parameters: key: 0: not damaged; 5: completely killed; conditions: 20 days after application, score 0-5
Summary of the method: as §1

[7] = tested on: common purslane (Portulaca oleracea); experiment: Pre-emergence application, herbicidal effect on common purslane (Table 1); parameters: key: 0: not damaged; 5: completely killed; conditions: 20 days after application, score 0-5
Summary of the method: as §1

Compound	Herbicidal effect, radish (radish; 10 g./a.)	Herbicidal effect, radish (radish; 20 g./a.)	Herbicidal effect, radish (radish; 40 g./a.)	Herbicidal effects, barnyard grass ([1]; 10 g/a)	Herbicidal effects, barnyard grass ([1]; 20 g/a)	Herbicidal effects, barnyard grass ([1]; 40 g/a)	Herbicidal effect, redroot pigweed ([2]; 10 g./a.)	Herbicidal effect, redroot pigweed ([2]; 20 g./a.)	Herbicidal effect, redroot pigweed ([2]; 40 g./a.)	Herbicidal effects, broad-leaved weeds ([3]; 10 g/a)	Herbicidal effects, broad-leaved weeds ([3]; 20 g/a)	Herbicidal effects, broad-leaved weeds ([3]; 40 g/a)	Phytotoxicity on rice (rice; 10 g/a)	Phytotoxicity on rice (rice; 20 g/a)	Phytotoxicity on rice (rice; 40 g/a)	Herbicidal effect, common lambsquarter ([4]; 10 g./a.)	Herbicidal effect, common lambsquarter ([4]; 20 g./a.)	Herbicidal effect, common lambsquarter ([4]; 40 g./a.)	Herbicidal effect, barnyard grass ([5]; 10 g./a.)	Herbicidal effect, barnyard grass ([5]; 20 g./a.)	further results
CCOP(=O)(SCC(=O)N1CCC(C)CC1)SC(C)C (stereo not drawn) [Compound 26]	0	0	0	5	5	5	4	4	4	5	5	5	0	0	0	3	4	4	4	5	Herbicidal effect, barnyard grass ([5]; 40 g./a.): 5; Herbicidal effect, large crabgrass ([6]; 10 g./a.): 4; Herbicidal effect, large crabgrass ([6]; 20 g./a.): 5; Herbicidal effect, large crabgrass ([6]; 40 g./a.): 5; Herbicidal effect, common purslane ([7]; 10 g./a.): 4; Herbicidal effect, common purslane ([7]; 20 g./a.): 4; Herbicidal effect, common purslane ([7]; 40 g./a.): 4
CCCCCSP(=O)(OCC)SCC(=O)N1CCCC(C)C1 (stereo not drawn) [Compound 72]	0	0	0	5	5	5	3	4	5	5	5	5	0	0	0	4	4	5	4	5	Herbicidal effect, barnyard grass ([5]; 40 g./a.): 5; Herbicidal effect, large crabgrass ([6]; 10 g./a.): 5; Herbicidal effect, large crabgrass ([6]; 20 g./a.): 5; Herbicidal effect, large crabgrass ([6]; 40 g./a.): 5; Herbicidal effect, common purslane ([7]; 10 g./a.): 3; Herbicidal effect, common purslane ([7]; 20 g./a.): 4; Herbicidal effect, common purslane ([7]; 40 g./a.): 5
CCCCCSP(=O)(OCC)SCC(=O)N1CCCCC1CC (stereo not drawn) [Compound 78]	0	0	0	5	5	5	4	4	5	5	5	5	0	0	0	3	4	5	5	5	Herbicidal effect, barnyard grass ([5]; 40 g./a.): 5; Herbicidal effect, large crabgrass ([6]; 10 g./a.): 5; Herbicidal effect, large crabgrass ([6]; 20 g./a.): 5; Herbicidal effect, large crabgrass ([6]; 40 g./a.): 5; Herbicidal effect, common purslane ([7]; 10 g./a.): 4; Herbicidal effect, common purslane ([7]; 20 g./a.): 4; Herbicidal effect, common purslane ([7]; 40 g./a.): 5
CCCCCCSP(=O)(OCC)SCC(=O)N1CCCCC1C (stereo not drawn) [Compound 62]	0	0	0	5	5	5	3	4	5	5	5	5	0	0	0	4	4	5	4	5	Herbicidal effect, barnyard grass ([5]; 40 g./a.): 5; Herbicidal effect, large crabgrass ([6]; 10 g./a.): 4; Herbicidal effect, large crabgrass ([6]; 20 g./a.): 5; Herbicidal effect, large crabgrass ([6]; 40 g./a.): 5; Herbicidal effect, common purslane ([7]; 10 g./a.): 3; Herbicidal effect, common purslane ([7]; 20 g./a.): 4; Herbicidal effect, common purslane ([7]; 40 g./a.): 5
CCCCOP(=O)(SCC(=O)N1CCCCC1CC)SC(C)C (stereo not drawn) [Compound 94]	0	0	0	5	5	5	3	4	5	5	5	5	0	0	0	4	4	5	5	5	Herbicidal effect, barnyard grass ([5]; 40 g./a.): 5; Herbicidal effect, large crabgrass ([6]; 10 g./a.): 5; Herbicidal effect, large crabgrass ([6]; 20 g./a.): 5; Herbicidal effect, large crabgrass ([6]; 40 g./a.): 5; Herbicidal effect, common purslane ([7]; 10 g./a.): 3; Herbicidal effect, common purslane ([7]; 20 g./a.): 4; Herbicidal effect, common purslane ([7]; 40 g./a.): 5
CCCCOP(=O)(SCC(=O)N1CCCCC1CC)SCC(C)C (stereo not drawn) [Compound 97]	0	0	0	5	5	5	3	4	5	5	5	5	0	0	0	3	4	5	4	5	Herbicidal effect, barnyard grass ([5]; 40 g./a.): 5; Herbicidal effect, large crabgrass ([6]; 10 g./a.): 4; Herbicidal effect, large crabgrass ([6]; 20 g./a.): 5; Herbicidal effect, large crabgrass ([6]; 40 g./a.): 5; Herbicidal effect, common purslane ([7]; 10 g./a.): 4; Herbicidal effect, common purslane ([7]; 20 g./a.): 4; Herbicidal effect, common purslane ([7]; 40 g./a.): 5
CCCCOP(=O)(SCC)SCC(=O)N1CCCCC1CC (stereo not drawn) [Compound 92]	0	0	0	5	5	5	5	5	5	5	5	5	0	0	2	5	5	5	5	5	Herbicidal effect, barnyard grass ([5]; 40 g./a.): 5; Herbicidal effect, large crabgrass ([6]; 10 g./a.): 5; Herbicidal effect, large crabgrass ([6]; 20 g./a.): 5; Herbicidal effect, large crabgrass ([6]; 40 g./a.): 5; Herbicidal effect, common purslane ([7]; 10 g./a.): 5; Herbicidal effect, common purslane ([7]; 20 g./a.): 5; Herbicidal effect, common purslane ([7]; 40 g./a.): 5
CCCCOP(=O)(SCCC)SCC(=O)N1CCCCC1CC (stereo not drawn) [Compound 93]	0	0	0	5	5	5	4	5	5	5	5	5	0	0	0	4	5	5	5	5	Herbicidal effect, barnyard grass ([5]; 40 g./a.): 5; Herbicidal effect, large crabgrass ([6]; 10 g./a.): 5; Herbicidal effect, large crabgrass ([6]; 20 g./a.): 5; Herbicidal effect, large crabgrass ([6]; 40 g./a.): 5; Herbicidal effect, common purslane ([7]; 10 g./a.): 4; Herbicidal effect, common purslane ([7]; 20 g./a.): 4; Herbicidal effect, common purslane ([7]; 40 g./a.): 5
